Measured values reported in patent publication US4626505A, “Selectable markers for yeast transformation” (E. I. Du Pont de Nemours and Company, priority 1984, dated 1986).

System: industrial S. cerevisiae strains ATCC 7754 and ATCC 4921
Assay: Growth/resistance of industrial yeast strains, untransformed and transformed with pCP2-4-10
Assay type: cell-based, Saccharomyces cerevisiae
Settings: for resistance of industrial transformants to structurally related sulfonylurea growth inhibitors: ATCC 7754 and ATCC 4921 transformed with pCP2-4-10
Protocol: […]. […] The optimum period of incubation with glusulase for producing spheroplasts was determined to be approximately 3 hours.
The resulting industrial transformants were resistant to other, structurally related sulfonylurea growth inhibitors in addition to sulfometuron methyl. These inhibitors included N-[(4-methoxy-6-methyl-pyrimidin-2-yl)aminocarbonyl]-2-nitrobenzenesulfonamide; N-[(4,6-dimethoxy-pyrimidin-2-yl)-aminocarbonyl]-2-methylthiobenzenesulfonamide; and 2-[[(4-chloro-6-methoxypyrimidine-2-yl)amino carbonyl]aminosulfonyl]benzoic acid, ethyl ester.

Compound | resistance of industrial transformants to structurally related sulfonylurea growth inhibitors | growth of untransformed wild-type strains (30 μg/mL, ATCC 7754 and ATCC 4921, untransformed)
CCOC(=O)c1ccccc1S(=O)(=O)NC(=O)Nc1nc(Cl)cc(OC)n1 [2-[[(4-chloro-6-methoxypyrimidine-2-yl)aminocarbonyl]aminosulfonyl]benzoic acid, ethyl ester] | resistant | –
COc1cc(OC)nc(NC(=O)NS(=O)(=O)c2ccccc2SC)n1 [N-[(4,6-dimethoxy-pyrimidin-2-yl)-aminocarbonyl]-2-methylthiobenzenesulfonamide] | resistant | –
COc1cc(C)nc(NC(=O)NS(=O)(=O)c2ccccc2[N+](=O)[O-])n1 [N-[(4-methoxy-6-methyl-pyrimidin-2-yl)aminocarbonyl]-2-nitrobenzenesulfonamide] | resistant | –
COC(=O)c1ccccc1S(=O)(=O)NC(=O)Nc1nc(C)cc(C)n1 [sulfometuron methyl] | – | completely inhibited
